This is an account of results in patent publication US20220280543A1, “DDX17 AND NLRC4 TARGETING FOR INFLAMMATORY DISEASES” (University of Virginia Patent Foundation, priority 2019, published 2022).

One data set deals with caspase-1. The data set can be described thus: Alu RNA induced cleavage of caspase-1 precursor in BMDM. It counts as cell-based, mouse. The conditions noted are these: Alu RNA transfection (FIG. 2). As for the experimental part:
FIG. 2. SINE RNA induced NLRC4 phosphorylation (site S533) through protein Kinase C Delta. BMDM cell pre-treated with the LRRK2 Kinase inhibitor gsk2578215a (GSK; 5-(2-Fluoro-4-pyridinyl)-2-(phenylmethoxy)-N-3-pyridinyl-benzamide; CAS Number 1285515-21-0; Sigma-Aldrich, St. Louis, Mo., United States of America) or the PKC delta inhibitor Rottlerin (CAS Number 82-08-6; Sigma-Aldrich) at 2 μM or 5 μM, and treated with Alu RNA (SEQ ID NO: 86) transfection or transfection reagent alone (Mock). NLRC4 phosphorylation (P-NLRC4) and supernatant caspase-1 activation were detected by SDS-PAGE. […] PKC delta inhibitor, Rottlerin blocked Alu RNA-induced NLRC4 phosphorylation and caspase-1 activation. The p-NLRC4 and caspase-1 (p20) bands were indicated with black arrows.

A further data set concerns ASC specks. The data set can be described thus: SINE RNA induced ASC specks in BMDM, immunofluorescence. It is filed as cell-based, mouse. Conditions: BMDMs, transfection vs Mock (FIG. 3A). As for the experimental part: FIGS. 3A and 3B. SINE RNA-induced ASC oligomerization is dependent on NLRC4 (BMDM). FIG. 3A. Immunofluorescence images of endogenous ASC specks and NLRC4 puncta in BMDMs after transfected with Alu (SEQ ID NO: 86) or B2 (SEQ ID NO: 88) RNA or transfection reagents only (Mock). […] Moreover, NLRC4 proteins assembled as puncta, and co-resided with ASC specks. FIG. 3B. ASC oligomerizations were evaluated in wild-type and Nlrc4^−/− BMDMs through cross-linking and western blot. […] The bands of oligomeric ASC protein were indicated by black arrow.
The activated NLRC4 inflammasome undergoes oligomerization by assembling into high-molecular mass multiprotein complexes. We first investigated in situ assembling of NLRC4 and apoptosis speck (ASC) like protein complexes in response to SINE RNA treatment of BMDMs. Immunofluorescence studies show increased NLRC4 and ASC specks in SINE RNA-treated BMDMs compared to mock-treated cells (FIG. 3A). To assess NLRC4 inflammasome assembly, WT and NLRC4 KO BMDM cells were treated with Alu RNA (SEQ ID NO: 86). Disuccinimidyl suberate (DSS) cross-linked lysates were resolved using denaturing SDS-PAGE to detect ASC oligomers and cell lysates were resolved using native polyacrylamide gel electrophoresis (NATIVE-PAGE) to detect NLRC4 oligomerization. […] NLRC4/ASC oligomerization is essential for the cleavage of pro-caspase-1 into its active form p20 and IL-1β release.

The target of another data set is DDX17 (Homo sapiens, UniProt Q92841). The data set can be described thus: DDX17 translocation in THP-1 cells, cell fractionation and immunoblot. It counts as cell-based. Conditions: THP-1, Alu RNA 100 pmol (FIG. 36). The text has this:
FIG. 36. Alu RNA (SEQ ID NO: 86) induces DDX17 translocation in human cells. Human monocytes (THP-1) were transfected with Alu RNA (SEQ ID NO: 86 at 100 pmol) using LIPOFECTAMINE™ 3000 brand transfection reagent (Lipo; ThermoFisher Scientific). Cell lysates were collected and subjected to cell fractionation. Immunoblots of DDX17 and Histone H3 were used to evaluate the subcellular distribution of DDX17. […] The bands of DDX17 in cell nucleus and cytoplasm were indicated by black arrows.
Human monocytes (THP-1) were treated with Alu RNA (SEQ ID NO: 86 at 100 pmol). Cell lysates were collected and subjected to cell fractionation. Immunoblots of DDX17 and Histone H3 were used to evaluate the subcellular distribution of DDX17.
For orientation: In western blotting, separated proteins are transferred to a membrane and probed.

In the next data set the test system is NLRC4 and NLRP3 complex. The data set can be described thus: Assembly of NLRC4 and NLRP3 complex in human RPE cells, Proximity Ligation Assay. The conditions noted are these: biotinylated Alu RNA 100 pmol, PLA (FIG. 37). It counts as cell-based. Here is the method: FIG. 37. Alu RNA (SEQ ID NO: 86) induces the assembly of NLRC4 and NLRP3 complex. Human RPE cells were transfected with biotinylated Alu RNA (SEQ ID NO: 86 at 100 pmol) by LIPOFECTAMINE™ 3000 brand transfection reagent (Lipo; ThermoFisher Scientific). The assembly of NLRC4 and NLRP3 complex was evaluated by Proximity Ligation Assay (PLA). […] The signal of NLRC4-NLRP3 complexes is indicated by the white arrow.
Human RPE cells were treated with biotinylated Alu RNA (SEQ ID NO: 86 at 100 pmol). The assembly of NLRC4 and NLRP3 complex was evaluated by Proximity Ligation Assay (PLA).

Sequence of DDX17 (Q92841 whole entry, species assumed): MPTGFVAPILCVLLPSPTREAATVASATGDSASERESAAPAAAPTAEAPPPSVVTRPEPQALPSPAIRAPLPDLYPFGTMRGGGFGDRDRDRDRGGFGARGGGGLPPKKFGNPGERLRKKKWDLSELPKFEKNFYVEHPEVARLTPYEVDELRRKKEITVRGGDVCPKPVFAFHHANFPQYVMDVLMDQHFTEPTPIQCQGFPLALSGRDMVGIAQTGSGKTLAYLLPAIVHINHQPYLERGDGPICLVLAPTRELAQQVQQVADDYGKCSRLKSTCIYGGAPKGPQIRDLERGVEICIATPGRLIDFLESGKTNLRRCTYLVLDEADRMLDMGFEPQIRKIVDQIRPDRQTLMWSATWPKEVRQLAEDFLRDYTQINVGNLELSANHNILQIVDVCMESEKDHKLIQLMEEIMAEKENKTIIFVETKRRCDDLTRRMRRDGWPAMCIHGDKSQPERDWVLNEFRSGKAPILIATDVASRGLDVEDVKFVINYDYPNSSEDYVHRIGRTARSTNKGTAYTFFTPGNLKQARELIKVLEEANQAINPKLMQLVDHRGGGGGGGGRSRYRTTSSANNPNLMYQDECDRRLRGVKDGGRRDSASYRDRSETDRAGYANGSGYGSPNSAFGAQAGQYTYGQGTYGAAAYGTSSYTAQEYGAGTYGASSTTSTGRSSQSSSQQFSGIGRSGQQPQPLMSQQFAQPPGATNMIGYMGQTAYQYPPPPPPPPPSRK

Turning to Alu RNA: human SINE RNA, SEQ ID NO: 86, the “cleavage of caspase-1 precursor (pro) to p20” value with caspase-1 is given as “induced”. For the same substance, the “formation of ASC specks” value in the data set with ASC specks is given as “induced the formation of ASC specks”. Besides, in the data set with DDX17, the “subcellular distribution of DDX17” value is “induced DDX17 translocation from the nucleus to the cytoplasm”. Further, in the data set with NLRC4 and NLRP3 complex, the “assembly of NLRC4 and NLRP3 complex” value is “induced the assembly”.
